Source: US8426462B2, “Ferrocene derivatives with anticancer activity” (Centre National de la Recherche Scientifique (CNRS), priority 2008, dated 2013)

Columns and labels:
[1] = tested on: MDA-MB-231 cells (non-hormone-dependent breast cancer cells); details: read-out: Antiproliferative effect (IC50)
Method: (§1) The antiproliferative effects of compounds of the invention were tested on MDA-MB-231 cells, which are non-hormone-dependent breast cancer cells, on PC-3 cells, which are non-hormone-dependent prostate cancer cells and on MCF-7 cells, which are hormone-dependent breast cancer cells.
(§2) The experimental method used for this test is described in Hillard E. A. et al. Chem. Med. Chem. 2006, 1, 551-559.

[2] = tested on: MCF-7 cells (hormone-dependent breast cancer cells containing ERα); assay: Proliferative/antiproliferative effect on MCF-7 cells; format: cell-based; details: for proliferative effect based on the control: MCF-7, without phenol red, 10^−8M; for IC50: MCF-7, approximate, estrogen effect plus cytotoxic activity, read-out: IC50 on MCF-7 line (converted)
Text: The purely cytotoxic effect appears at higher concentrations where the resultant of the two components (estrogen effect plus cytotoxic activity) is therefore evidenced. It is thus difficult to achieve very accurate IC50 values for the MCF-7 line.

[3] = tested on: PC-3 cells (non-hormone-dependent prostate cancer cells); details: read-out: Antiproliferative effect (IC50)
Method: as §1, §2

Molecule	IC50 [1] [nM]	proliferative effect based on the control [2] [%]	IC50 [2] [nM]	IC50 [3] [nM]
1,1′-[1-[1,1-bis(4-hydroxyphenyl)methylidene]-2-methyltrimethylene]ferrocene [Compound 11]	630			
1,1′-[1-[1,1-bis(4-hydroxyphenyl)methylidene]trimethylene]ferrocene [Compound 4]	80	162	~4000	940
1,1′-[1-[(4-hydroxyphenyl)(phenyl)-methylidene]trimethylene]ferrocene [Compound 12]	470			
1,1′-[2-[1,1-bis(4-hydroxyphenyl)methylidene]trimethylene]ferrocene [Compound 5]	960		~1000	1080
1,2-[1-[1,1-bis(4-hydroxyphenyl)methylidene]tetramethylene]-ferrocene [Compound 9]	500			
1,2-[1-[1,1-bis(4-hydroxyphenyl)methylidene]trimethylene]ferrocene [Compound 8]	2700			
C[C@]12CC[C@@H]3c4ccc(O)cc4CC[C@H]3[C@@H]1CC[C@@H]2O [estradiol, reference compound]		264		
(R)-1,1′-[1-[1,1-bis(4-hydroxyphenyl)methylidene]-3-methyltrimethylene]ferrocene [Compound 7]	780			
(S)-1,1′-[1-[1,1-bis(4-hydroxyphenyl)methylidene]-3-methyltrimethylene]ferrocene [Compound 6]	2700			
